Reference: PubChem BioAssay AID493003 (Sanford-Burnham Center for Chemical Genomics, 2010)
Activity calls are given as the source filed them. How the calls were made is not given here.

Each molecule was assayed on S. cerevisiae tim10-1 mutant growth, luminescence (assay: tim10-1 yeast growth inhibition potency – luminescence, S. cerevisiae, uHTS hits, dose response (AID 493003);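 further: yeast growth measured after about 22 hours at 25 °C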).
Molecule `Cc1nn(Cc2c(F)c(F)c(F)c(F)c2F)c(C)c1NC(=O)c1ccc(COc2ccc(Cl)cc2Cl)o1` has an IC50 of 25.5 µM. In the case of `COc1ccc(C)c2sc(N3CCCC3)nc12`, the IC50 is reported as 21.7 µM. Work on `Cc1nn(Cc2ccc(Cl)cc2)c(C)c1NC(=O)c1c(-c2ccccc2)noc1C` yielded an IC50 of 76.1 µM. `N=C(N)c1ccc(/C=C/c2ccc(C(=N)N)cc2O)cc1` showed an IC50 of 10.6 µM. `CC(C)C[C@@H](CSc1ccc(Br)cc1)N1CCN(CC(C)C)CCC1=O` showed an IC50 of 25.9 µM. Molecule `CC1=C/C(=N\OS(=O)(=O)c2ccccc2)C=CC1=O` has an IC50 of 0.46 µM. Molecule `C[C@@H]1CC=C[C@H]2[C@H]1C(=O)N(Cc1ccccc1)[C@H]2c1ccc(-c2ccoc2)cc1F` has an IC50 of 12.4 µM. For `Cc1nn(-c2ccccc2)c(Cl)c1C(=O)N1CCN(c2ncnc3c2cnn3-c2ccccc2)CC1`, the IC50 was > 100 µM (inactive). `C=CCc1cccc(CNc2ccc(Br)cc2)c1O` showed an IC50 of 21.8 µM. `O=C(NNC(=S)Nc1ccc(Cl)cc1)c1ccccc1OC(F)F` gave an IC50 of 12 µM. With `CCc1nc(C)cn1S(=O)(=O)c1cc([N+](=O)[O-])ccc1Cl` the IC50 was 16.8 µM. For `Cc1c(C(=O)N2CCc3ccccc3C2)sc2nc(-c3ccccc3)cn12`, the IC50 was 37.2 µM. Molecule `Clc1cccc(Cl)c1/C=C/c1ccn[nH]1` has an IC50 of 22.8 µM. With `O=C(/C=C/c1ccccc1)CC(O)(c1ccccc1)C(F)(F)F` (stereo unspecified) the IC50 was 24.2 µM. Work on `CCOC(=O)C1CCN(C(=O)c2oc3ccc4c(c3c2C)C(O)CC2(CCCCC2)O4)CC1` (stereo unspecified) yielded an IC50 of 26 µM. In the case of `CCOc1ccccc1C(=O)Nc1cc(OC)ccc1OC`, the IC50 is reported as 35.1 µM. In the case of `COc1c(/C=C2\SC(=Nc3ccccc3Cl)NC2=O)cccc1[N+](=O)[O-]`, the IC50 is reported as 22.5 µM. Molecule `Cn1ncc2c(Nc3ccc(Br)cc3)nc(Nc3ccc(Br)cc3)nc21` has an IC50 of 18.7 µM. With `Nc1ccc2oc(-c3cccc(Br)c3)nc2c1` the IC50 was 28.3 µM. Molecule `CCN1C(=O)C2(C(C#N)=C(N)Oc3c2c(C)nn3-c2ccccc2)c2ccccc21` (stereo unspecified) has an IC50 of 22.2 µM. `O/N=C(\c1ccc(Cl)cc1Cl)c1ncc(C(F)(F)F)cc1Cl` was tested, and the IC50 was 19.6 µM. Molecule `O=C(Nc1ccc(C(=O)N2CCN(c3ccc(F)cc3)CC2)cc1)C1=CSCCO1` has an IC50 of 44.3 µM. In the case of `O=C1CC(Sc2nnc(-c3ccccc3)o2)C(=O)N1c1ccccc1` (stereo unspecified), the IC50 is reported as 28.3 µM. Work on `C=CCN(C(=O)c1cccc(S(=O)(=O)N2CCN(C)CC2)c1)c1nc(-c2ccccc2)cs1` yielded an IC50 of 46.8 µM. In the case of `Cc1cc(C)n2nc(SCc3c(F)cccc3Cl)nc2n1`, the IC50 is reported as > 100 µM (inactive). `COc1cccc(N2C(C(C)=O)=NN(c3ccccc3)C2c2ccc(N3CCOCC3)cc2)c1` (stereo unspecified) was tested, and the IC50 was > 100 µM (inactive). In the case of `CCCC(=O)NC(=S)Nc1ccc(Cl)cn1`, the IC50 is reported as 30.1 µM. Molecule `Cc1cccc(C(=O)O/N=C(/c2ccccc2)c2ccncc2)c1` has an IC50 of 26.1 µM. Molecule `O=C(c1ccc2nc(N3CCCCC3)sc2c1)N1CCN(c2ccccn2)CC1` has an IC50 of 46.1 µM. Work on `N#CC(C#N)=c1ccc2c(c1)NC1(CCCCC1)N=2` yielded an IC50 of 30.5 µM. Molecule `COc1ccc(Br)cc1[C@H]1[C@H]2C=CC[C@@H](C)[C@@H]2C(=O)N1Cc1ccccc1` has an IC50 of 7.88 µM. Work on `CCC(=O)Oc1ccc(-c2nc(-c3cccnc3)no2)cc1` yielded an IC50 of 43.4 µM. For `O=C(C1CCN(C2CC(=O)N(c3cccc(Cl)c3)C2=O)CC1)N1CCCC1` (stereo unspecified), the IC50 was 18.2 µM. Molecule `CCN(CC1COc2ccccc2O1)C(=S)Nc1ccccc1` (stereo unspecified) has an IC50 of 64.8 µM. `Cc1ccc(C(=O)c2no[n+]([O-])c2C(=O)c2ccc(C)cc2)cc1` gave an IC50 of 15.3 µM. For `CC(C)n1c(-c2ccco2)csc1=Nc1cccnc1`, the IC50 was 43 µM. `CC(C)NC(=S)N/N=C1\CCCCC1C1CCCCC1` (stereo unspecified) was tested, and the IC50 was 37.5 µM. In the case of `Cc1nnc(SC2CC(=O)N(c3ccccc3)C2=O)s1` (stereo unspecified), the IC50 is reported as 31.1 µM. In the case of `O=C(OCn1ncc(Br)c(Br)c1=O)c1ccc(F)cc1`, the IC50 is reported as 3.3 µM. In the case of `CSc1ccc(-c2nc3cnccn3c2Nc2ccc3c(c2)OCO3)cc1`, the IC50 is reported as 59.4 µM. With `Cc1ccc(-c2csc(-c3c[nH]c4ccccc34)n2)cc1` the IC50 was 25.4 µM. For `N/C(=N\OC(=O)CCCc1ccccc1)c1ccccc1Cl`, the IC50 was 16.4 µM. In the case of `CCOC(=O)c1ccc(N2C(=O)C=CC2=O)cc1`, the IC50 is reported as 2.75 µM. With `NC(=NCCCCCCN=C(N)/N=C(\N)Nc1ccc(Cl)cc1)/N=C(\N)Nc1ccc(Cl)cc1` the IC50 was 12.1 µM. `Cc1ccnn2cc3c(=O)n(C)c(=O)n(C)c3c12` gave an IC50 of 63.1 µM. `c1ccc(-c2csc3ncnc(-n4cnc5ccccc54)c23)cc1` showed an IC50 of 15.8 µM. In the case of `Cc1nn(Cc2ccc(Cl)cc2)c(C)c1NC(=O)c1ccc([N+](=O)[O-])cc1`, the IC50 is reported as 34.2 µM. Molecule `Cc1nn(-c2ccc(F)cc2)c(C)c1NS(=O)(=O)c1ccc(Cl)cc1` has an IC50 of 19.9 µM. `COc1ccc(-c2oc3ncnc(NCCCN(C)C)c3c2-c2ccc(OC)cc2)cc1` gave an IC50 of 65.5 µM. `Cc1cc(C)cc(OCC(=O)N2N=C(C(F)(F)F)CC2(O)C(C)(C)C)c1` (stereo unspecified) gave an IC50 of 77.8 µM. `CCCCCCSc1ccc([C@H]2N[C@@](C)(C(=O)OC)[C@H]3C(=O)N(C)C(=O)[C@@H]23)cc1` was tested, and the IC50 was 53.2 µM. With `C[C@@]12CCC=C[C@H]1[C@H](c1ccc3ccccc3c1)N(Cc1ccccc1)C2=O` the IC50 was 22.2 µM. For `C/C(CC(=O)Nc1ccc(N(C)C)cc1)=N\NC(=O)c1ccccn1`, the IC50 was 54.5 µM. `CC(C)c1ccc(S(=O)(=O)N2CCN(CC(=O)Nc3ccc4c(c3)OCO4)CC2)cc1` showed an IC50 of 75.4 µM. `COc1ccc(-c2csc(CCn3nc(C)cc3C)n2)cc1` gave an IC50 of 30.1 µM. In the case of `N#Cc1sc2nc(C3CC3)cc(-c3ccc(Cl)cc3)c2c1N`, the IC50 is reported as > 100 µM (inactive).
